Data on 29 compounds can be found in PubChem BioAssay AID588573 (Sanford-Burnham Center for Chemical Genomics, 2011).

Calls of active or inactive are those of the source. How the calls were made is not given here.

For the experiment, the target named is Caspase-3 (Homo sapiens) + Caspase-9 (Homo sapiens) (UniProt P42574+P55211). In words: CASP3 and CASP9 cascade activity modulators, specificity counterscreen for apoptotic protease activating factor 1 activator project, concentration-response, cell-free, fluorescence, leucine zipper CASP9, ultra-HTS actives (AID 588573). The following applies: LZ-caspase-9/caspase-3 coupled fluorogenic activity assay. Background: Counterscreens check selectivity or assay interference.
Sequence of Caspase-3 (Homo sapiens) + Caspase-9 (Homo sapiens) (P42574 whole entry, looked up): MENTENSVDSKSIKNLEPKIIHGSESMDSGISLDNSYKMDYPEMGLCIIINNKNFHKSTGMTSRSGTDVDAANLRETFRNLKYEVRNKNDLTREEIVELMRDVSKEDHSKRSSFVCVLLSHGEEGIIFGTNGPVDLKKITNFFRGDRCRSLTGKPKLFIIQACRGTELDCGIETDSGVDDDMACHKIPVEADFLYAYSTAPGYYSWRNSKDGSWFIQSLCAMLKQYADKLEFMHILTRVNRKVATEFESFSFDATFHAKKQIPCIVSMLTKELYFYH
Sequence of Caspase-3 (Homo sapiens) + Caspase-9 (Homo sapiens) (P55211 whole entry, looked up): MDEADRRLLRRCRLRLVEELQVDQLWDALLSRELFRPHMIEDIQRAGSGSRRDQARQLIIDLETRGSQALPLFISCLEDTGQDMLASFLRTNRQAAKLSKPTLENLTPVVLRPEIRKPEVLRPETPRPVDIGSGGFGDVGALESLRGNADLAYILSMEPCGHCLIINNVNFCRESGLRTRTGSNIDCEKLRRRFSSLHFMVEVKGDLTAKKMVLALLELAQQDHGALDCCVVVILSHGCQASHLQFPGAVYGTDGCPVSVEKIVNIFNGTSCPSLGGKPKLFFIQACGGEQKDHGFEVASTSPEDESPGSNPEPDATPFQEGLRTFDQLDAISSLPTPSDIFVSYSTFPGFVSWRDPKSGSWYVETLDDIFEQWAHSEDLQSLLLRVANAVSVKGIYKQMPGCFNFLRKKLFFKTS
Consider `CC(Cc1c[nH]c2ccccc12)C(=O)O` (centres undefined), for which the EC50 (usually the concentration at which the effect is half-maximal) is > 100 µM (inactive).
Take `CC(/C=C\c1cccnc1)=C/C(=O)O`: the EC50 is > 100 µM (inactive).
For the compound `C=CC1=C(C(=O)O)N2C(=O)[C@@H](NC(=O)/C(=N\OCC(=O)O)c3csc(N)n3)[C@H]2SC1`, the EC50 was > 100 µM (inactive).
In the case of `O=C(CCS(=O)(=O)c1ccc(Br)cc1)NCc1ccco1`, the EC50 was > 100 µM (inactive).
`CCOc1ccc(C(=O)/C=C/Nc2ccc(S(=O)(=O)N=C(N)N)cc2)cc1`: the EC50 is > 100 µM (inactive).
On the same count and under the same terms, the value for `CCOc1ccccc1NC(=O)CCS(=O)(=O)c1ccc(Br)cc1` was > 100 µM (inactive); that for `C=C(C)C(=O)Nc1cccc(C2=NOC3(C2)C[C@@H](C(N)=O)N(C(=O)/C(C)=C/C)C3)c1` (some centres undefined) was > 100 µM (inactive).
With `O=C1C2(CCCC13COC(c1ccc(O)cc1)OC3)COC(c1ccc(O)cc1)OC2` (centres undefined), the EC50 was > 100 µM (inactive).
For the compound `C=C(C)C(=O)Nc1cccc(C2=NOC3(C2)C[C@@H](C(N)=O)N(C(=O)c2cc([N+](=O)[O-])cc([N+](=O)[O-])c2C)C3)c1` (some centres undefined), the EC50 is > 100 µM (inactive).
Same read-out and setting: the value for `C=C(C)C(=O)Nc1cccc(C2=NOC3(C2)C[C@H](C(N)=O)N(C(=O)/C=C/C)C3)c1` (some centres undefined) was > 100 µM (inactive); that for `O=C(Nc1nc2ccsc2c(=O)s1)c1ccco1` was > 100 µM (inactive); that for `COc1cc([N+](=O)[O-])ccc1NC(=O)COC(=O)c1ccc(NC(N)=O)cc1` was > 100 µM (inactive).
The same measure, in the same setting: the value for `C=C(C)C(=O)Nc1cccc(C2=NOC3(C2)C[C@@H](C(N)=O)N(C(=O)/C=C/CC)C3)c1` (some centres undefined) was > 100 µM (inactive).
For `CC(CNc1ccccc1O)C(=O)O` (centres undefined), the EC50 was > 100 µM (inactive).
As to `C=C(C)C(=O)Nc1cccc(C2=NOC3(C2)C[C@@H](C(N)=O)N(C(=O)C(=C)C)C3)c1` (some centres undefined), the EC50 is > 100 µM (inactive).
Same read-out and setting: next, `N#CCCn1cc(C(CC(=O)c2ccc(Br)cc2)C(=O)O)c2ccccc21` (centres undefined): > 100 µM (inactive).
For `COC(=O)c1ccccc1-c1ccc(/C=C2\C(=O)N(c3ccccc3)N=C2c2ccccc2)o1`, the EC50 is > 100 µM (inactive).
As to `C=C(C)C(=O)Nc1cccc(C2=NOC3(C2)C[C@@H](C(N)=O)N(C(=O)CCCCC)C3)c1` (some centres undefined), the EC50 was > 100 µM (inactive).
Consider `CCN(CC)CCOc1ccc2c(c1)C(=NNC(=O)c1ccccn1)c1cc(OCCN(CC)CC)ccc1-2`, for which the EC50 is > 100 µM (inactive).
`N#C/C(=C\c1ccc(OCc2ccc(Cl)cc2)cc1)C(=O)Nc1cccc(C(=O)O)c1`: the IC50 (inhibition of caspase signal) is 15.6 µM.
Take `CC(C)(CS(=O)(=O)[O-])NC(=O)CC[N+](C)(C)CCO`: the EC50 is > 100 µM (inactive).
Consider `C=C(C)C(=O)Nc1cccc(C2=NOC3(C2)C[C@H](C(N)=O)N(C(=O)c2ccccc2)C3)c1` (some centres undefined), for which the EC50 is > 100 µM (inactive).
On to `C=CC1=C(C(=O)O)N2C(=O)[C@@H](NC(=O)/C(=N/OCC(=O)O)c3csc(N)n3)[C@H]2SC1`, for which the EC50 was > 100 µM (inactive).
With `COc1ccc([N+](=O)[O-])cc1NC(=O)CCS(=O)(=O)c1ccc(Br)cc1`, the EC50 is > 100 µM (inactive).
Regarding `CCc1ccc(N=C2NC(=O)/C(=C/c3cc(Br)c(OCC(=O)O)c(OC)c3)S2)cc1`, the IC50 (inhibition of caspase signal) is 23.6 µM.
For the compound `C=C(C)C(=O)Nc1cccc(C2=NOC3(C2)C[C@H](C(N)=O)N(C(=O)c2ccccc2C(=O)c2ccccc2)C3)c1` (some centres undefined), the EC50 was > 100 µM (inactive).
In the case of `COc1ccc(/C=C2\SC(=S)N(CCC(=O)Nc3ccc(C(=O)O)cc3)C2=O)cc1OC`, the IC50 (inhibition of caspase signal) was 14.6 µM.
Consider `C=C(C)C(=O)Nc1cccc(C2=NOC3(C2)C[C@@H](C(N)=O)N(C(=O)/C=C/C=C/C)C3)c1` (some centres undefined), for which the EC50 is > 100 µM (inactive).
Take `Cc1cc(C)n(CC(C)C(=O)O)n1` (centres undefined): the EC50 is > 100 µM (inactive).
